How the values were obtained:
[1] = target: Transporter, Dopamine (DAT) (Homo sapiens, UniProt Q01959); assay: Lead Profiling Screen – Eurofins Panlabs; type: binding; conditions: read-out: % inh at 10 μM
Muscarinic M1 = Muscarinic M1 (Homo sapiens, UniProt P11229); assay: Lead Profiling Screen – Eurofins Panlabs; type: binding; conditions: read-out: % inh at 10 μM
Endothelin ETA = target: T1, Endothelin ETA (Homo sapiens, UniProt P25101); assay: Lead Profiling Screen – Eurofins Panlabs; type: binding; conditions: read-out: % inh at 10 μM
T1 construct: Eurofins Panlabs (contract screen)
T1 sequence (P25101 21-427): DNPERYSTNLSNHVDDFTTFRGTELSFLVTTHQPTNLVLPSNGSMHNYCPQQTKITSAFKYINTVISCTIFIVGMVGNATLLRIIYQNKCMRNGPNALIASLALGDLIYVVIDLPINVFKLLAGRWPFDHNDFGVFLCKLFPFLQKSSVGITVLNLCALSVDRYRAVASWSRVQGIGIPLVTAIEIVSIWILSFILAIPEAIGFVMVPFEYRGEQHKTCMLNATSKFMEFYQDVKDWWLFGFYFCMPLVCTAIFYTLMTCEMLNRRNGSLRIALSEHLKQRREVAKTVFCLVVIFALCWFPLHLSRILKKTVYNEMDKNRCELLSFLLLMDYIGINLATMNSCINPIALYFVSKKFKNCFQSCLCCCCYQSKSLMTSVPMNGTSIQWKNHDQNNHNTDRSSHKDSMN

CYP 2D6 = target: T2, CYP 2D6 (Homo sapiens, UniProt P10635); assay: P450 inhibition in pooled human liver microsomes; type: in vitro ADME; conditions: pooled HLM, NADPH, CYP-specific probe substrates
T2 construct: from tissue; host or cells: pooled human liver microsomes (according to the earlier reading)
T2 sequence (P10635 whole entry): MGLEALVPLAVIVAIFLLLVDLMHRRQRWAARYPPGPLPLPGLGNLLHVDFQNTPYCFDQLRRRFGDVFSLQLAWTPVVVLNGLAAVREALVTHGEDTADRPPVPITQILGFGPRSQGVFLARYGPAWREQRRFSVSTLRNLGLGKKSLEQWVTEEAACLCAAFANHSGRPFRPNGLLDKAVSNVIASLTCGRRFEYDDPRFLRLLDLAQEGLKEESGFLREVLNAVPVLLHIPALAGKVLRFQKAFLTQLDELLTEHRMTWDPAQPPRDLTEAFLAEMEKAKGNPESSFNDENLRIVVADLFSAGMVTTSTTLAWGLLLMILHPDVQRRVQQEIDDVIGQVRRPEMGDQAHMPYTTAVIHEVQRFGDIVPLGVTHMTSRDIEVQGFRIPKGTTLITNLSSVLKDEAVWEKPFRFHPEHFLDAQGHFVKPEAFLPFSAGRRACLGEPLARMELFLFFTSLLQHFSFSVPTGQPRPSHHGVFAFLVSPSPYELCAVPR

[2] = target: Leukotriene, Cysteinyl CysLT1 (Homo sapiens, UniProt Q9Y271); assay: Lead Profiling Screen – Eurofins Panlabs; type: binding; conditions: read-out: % inh at 10 μM
Androgen (Testosterone) = assay: Lead Profiling Screen – Eurofins Panlabs; type: binding, human
Histamine H1 = Histamine H1 (Homo sapiens, UniProt P35367); assay: Lead Profiling Screen – Eurofins Panlabs; type: binding; conditions: read-out: % inh at 10 μM
Adrenergic α1D = target: T3, Adrenergic α1D (Homo sapiens, UniProt P25100); assay: Lead Profiling Screen – Eurofins Panlabs; type: binding; conditions: read-out: % inh at 10 μM
T3 construct: Eurofins Panlabs (contract screen)

[3] = target: Platelet Activating Factor (PAF) (Homo sapiens, UniProt P25105); assay: Lead Profiling Screen – Eurofins Panlabs; type: binding; conditions: read-out: % inh at 10 μM
human M1 = human M1 (Homo sapiens, UniProt P11229); assay: Calcium mobilization assay, muscarinic selectivity; type: cell-based
human M1, sequence (P11229 whole entry): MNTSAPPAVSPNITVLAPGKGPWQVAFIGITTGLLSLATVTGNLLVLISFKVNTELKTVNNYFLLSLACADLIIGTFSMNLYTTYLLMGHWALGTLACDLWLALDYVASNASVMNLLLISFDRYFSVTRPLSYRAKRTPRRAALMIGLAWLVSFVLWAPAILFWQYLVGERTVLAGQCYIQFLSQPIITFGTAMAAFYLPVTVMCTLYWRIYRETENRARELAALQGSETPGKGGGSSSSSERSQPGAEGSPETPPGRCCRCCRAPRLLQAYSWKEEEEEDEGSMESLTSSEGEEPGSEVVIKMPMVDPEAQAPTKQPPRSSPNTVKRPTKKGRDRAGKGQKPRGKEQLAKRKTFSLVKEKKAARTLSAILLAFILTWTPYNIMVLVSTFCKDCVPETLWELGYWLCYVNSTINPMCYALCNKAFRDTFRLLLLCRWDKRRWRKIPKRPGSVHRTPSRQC

[4] = target: T4, Epidermal Growth Factor (EGF) (Homo sapiens, UniProt P00533); assay: Lead Profiling Screen – Eurofins Panlabs; type: binding; conditions: read-out: % inh at 10 μM
T4 construct: Eurofins Panlabs (contract screen)
T4 sequence (P00533 25-1210): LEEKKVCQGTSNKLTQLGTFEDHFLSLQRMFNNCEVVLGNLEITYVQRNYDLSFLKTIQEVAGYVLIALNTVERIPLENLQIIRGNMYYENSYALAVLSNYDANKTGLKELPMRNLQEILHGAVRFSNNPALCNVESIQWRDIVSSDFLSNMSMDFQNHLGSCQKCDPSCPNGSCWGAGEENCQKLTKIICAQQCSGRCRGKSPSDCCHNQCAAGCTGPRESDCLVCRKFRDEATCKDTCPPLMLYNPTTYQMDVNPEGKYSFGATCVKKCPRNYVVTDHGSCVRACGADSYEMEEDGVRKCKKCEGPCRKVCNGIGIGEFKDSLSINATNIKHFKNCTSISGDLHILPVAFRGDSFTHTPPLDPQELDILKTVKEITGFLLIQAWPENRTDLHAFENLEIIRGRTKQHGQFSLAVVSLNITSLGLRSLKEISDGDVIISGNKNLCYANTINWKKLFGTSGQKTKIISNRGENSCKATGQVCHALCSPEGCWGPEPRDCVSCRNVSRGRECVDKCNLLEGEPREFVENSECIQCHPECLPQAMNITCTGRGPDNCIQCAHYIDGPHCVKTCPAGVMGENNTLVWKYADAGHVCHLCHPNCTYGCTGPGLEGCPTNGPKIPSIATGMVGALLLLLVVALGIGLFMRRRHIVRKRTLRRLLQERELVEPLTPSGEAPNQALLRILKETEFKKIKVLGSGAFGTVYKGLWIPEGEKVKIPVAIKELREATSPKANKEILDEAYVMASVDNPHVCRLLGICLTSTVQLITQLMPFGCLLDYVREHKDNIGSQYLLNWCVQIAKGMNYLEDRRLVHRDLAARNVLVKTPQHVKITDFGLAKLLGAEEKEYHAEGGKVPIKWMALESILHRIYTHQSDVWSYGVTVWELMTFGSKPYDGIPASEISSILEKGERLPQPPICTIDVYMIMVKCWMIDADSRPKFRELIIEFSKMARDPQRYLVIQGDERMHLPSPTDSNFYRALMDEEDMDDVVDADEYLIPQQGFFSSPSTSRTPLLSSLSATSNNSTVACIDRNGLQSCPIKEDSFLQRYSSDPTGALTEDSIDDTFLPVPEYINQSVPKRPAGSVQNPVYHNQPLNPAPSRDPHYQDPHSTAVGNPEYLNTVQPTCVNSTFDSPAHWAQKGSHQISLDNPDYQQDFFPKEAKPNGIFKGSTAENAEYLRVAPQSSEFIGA

[5] = Intrinsic clearance in human liver microsomes; type: in vitro ADME
Protocol: (§1) Intrinsic Clearance in Rat and Human Liver Microsomes
(§2) The in vitro intrinsic clearance (CL int) was investigated in commercially obtained hepatic microsomes from rat and human donors using the substrate depletion (i.e., loss-of-parent vs. time, or t 1/2 method) approach with analyte detection via liquid chromatography-tandem mass spectrometry (LC-MS/MS). For each species, mean %parent remaining values at each time point were calculated from replicates raw data (analyte:IS peak area ratios) and used to determine in vitro t 1/2 and CLint.
(§3) Experiments were carried out using a robot-assisted (TECAN model Evo 200). Compound was incubated (1 µM final concentration) in buffer (100 mM potassium phosphate pH 7.4 with 3 mM MgCl2) containing hepatic microsomes (0.5 mg/mL final concentration) from multiple species, discretely, at 37 °C under constant orbital shaking. After 5 minutes (pre-incubation), reactions were initiated by addition of nicotinamide adenine dinucleotide phosphate (NADPH, 1 mM final concentration). At selected time intervals (0, 3, 7, 15, 25, and 45 minutes) post-addition of NADPH, aliquots (50 µL) were taken and placed into a 96-shallow-well plate containing ice cold acetonitrile (150 µL) with carbamazepine (IS, 50 nM). The plates were then centrifuged (3000 rcf at 4 °C) for 10 minutes. The supernatants were transferred to a new 96-shallow-well daughter plate and diluted (1:1 v/v) with water (Milli-Q filtered). The plates were then sealed in preparation for LC-MS/MS analysis (see below).
(§4) Raw LC-MS/MS peak area data generated from the assay samples were used to construct natural log-transformed %parent remaining vs. time plots (using t = 0 minute post-NADPH addition sample data as starting point set to 100%). In vitro compound half-life (t 1/2) values were obtained using the following […]
(§5) k is the slope from linear regression analysis of the natural log-transformed data (using means from Where all replicates at each time point). Resulting t 1/2 values were then used to calculate hepatic CLint values according to the following equation and with the use of species-specific scale-up factors for liver weight (grams) per total body weight (kg): […]
(§6) CLint = in vitro t1/2 x 0.5 mg microsomes x 1 gram liver x kg body wt aScale-up factors used are 45 (rat) and 20 (human).2
(§7) Predicted hepatic clearance (CLhep) was calculated using the following equation: […]
(§8) Qh represents hepatic blood flow (mL/min/kg): 21 for human, 70 for rat, and 90 for mouse.
(§9) Prepared samples were injected (10 µL each) onto an AB Sciex Triple Quad 4500 mass spectrometer system with an Agilent 1260 Infinity II pump and autosampler. Mass spectrometer conditions are described in Table S1. Quantitation of compounds was performed via AB Sciex Multiquant software using the raw analyte:IS peak area ratios. The typical detection range was 0.5 ng/mL to ≥ 5,000 ng/mL utilizing a quadratic equation regression with 1/x2 weighting. […]
(§10) Table S1. LC-MS/MS Conditions*
(§11) Mobile phase A 0.5% Formic Acid in Water
(§12) Mobile phase B 0.5% Formic Acid in Acetonitrile
(§13) Gradient Time % Mobile Phase B

[6] = test system: GABAA, Flunitrazepam, Central; assay: Lead Profiling Screen – Eurofins Panlabs; type: binding, rat
Rolipram = assay: Lead Profiling Screen – Eurofins Panlabs; type: binding, rat
Endothelin ETB = target: T5, Endothelin ETB (Homo sapiens, UniProt P24530); assay: Lead Profiling Screen – Eurofins Panlabs; type: binding; conditions: read-out: % inh at 10 μM
T5 construct: Eurofins Panlabs (contract screen)

Neuropeptide Y Y1 = Neuropeptide Y Y1 (Homo sapiens, UniProt P25929); assay: Lead Profiling Screen – Eurofins Panlabs; type: binding; conditions: read-out: % inh at 10 μM
[7] = Intrinsic clearance in rat liver microsomes; type: in vitro ADME
Protocol: as §1, §2, §3, §4, §5, §6, §7, §8, §9, §10, §11, §12, §13

Bradykinin B1 = target: T6, Bradykinin B1 (Homo sapiens, UniProt P46663); assay: Lead Profiling Screen – Eurofins Panlabs; type: binding; conditions: read-out: % inh at 10 μM
T6 construct: Eurofins Panlabs (contract screen)
T6 sequence (P46663 whole entry): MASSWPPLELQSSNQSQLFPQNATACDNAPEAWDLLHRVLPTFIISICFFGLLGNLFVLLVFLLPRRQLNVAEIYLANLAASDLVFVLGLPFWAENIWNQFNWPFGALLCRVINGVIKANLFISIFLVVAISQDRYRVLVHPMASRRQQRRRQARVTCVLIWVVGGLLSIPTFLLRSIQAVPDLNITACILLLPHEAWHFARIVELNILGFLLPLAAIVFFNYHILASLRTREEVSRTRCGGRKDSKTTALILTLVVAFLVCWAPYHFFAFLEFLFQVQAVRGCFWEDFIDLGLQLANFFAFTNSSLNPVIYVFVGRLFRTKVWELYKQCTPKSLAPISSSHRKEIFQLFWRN

hERG potassium channel = hERG potassium channel (Homo sapiens, UniProt Q12809); assay: Lead Profiling Screen – Eurofins Panlabs; type: binding; conditions: read-out: % inh at 10 μM
[8] = test system: Calcium Channel L-Type, Dihydropyridine; assay: Lead Profiling Screen – Eurofins Panlabs; type: binding, rat
Purinergic P2Y = assay: Lead Profiling Screen – Eurofins Panlabs; type: binding, rat
[9] = target: Nicotinic Acetylcholine α1, Bungarotoxin (Homo sapiens, UniProt P02708+P07510+Q07001); assay: Lead Profiling Screen – Eurofins Panlabs; type: binding; conditions: read-out: % inh at 10 μM
Nicotinic Acetylcholine α1, Bungarotoxin, sequence (P02708 21-457): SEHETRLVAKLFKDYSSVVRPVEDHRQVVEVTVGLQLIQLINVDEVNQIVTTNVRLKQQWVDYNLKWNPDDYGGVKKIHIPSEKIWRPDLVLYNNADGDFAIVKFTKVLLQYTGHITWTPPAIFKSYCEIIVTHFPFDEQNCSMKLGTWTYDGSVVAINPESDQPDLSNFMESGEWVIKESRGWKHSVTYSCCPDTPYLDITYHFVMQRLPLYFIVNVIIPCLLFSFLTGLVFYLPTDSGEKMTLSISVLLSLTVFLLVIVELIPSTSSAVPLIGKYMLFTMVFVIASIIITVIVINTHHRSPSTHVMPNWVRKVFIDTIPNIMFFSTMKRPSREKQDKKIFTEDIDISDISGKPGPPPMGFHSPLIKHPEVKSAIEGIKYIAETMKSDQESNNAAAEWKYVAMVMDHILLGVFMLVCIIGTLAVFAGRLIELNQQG
Nicotinic Acetylcholine α1, Bungarotoxin, sequence (Q07001 22-517): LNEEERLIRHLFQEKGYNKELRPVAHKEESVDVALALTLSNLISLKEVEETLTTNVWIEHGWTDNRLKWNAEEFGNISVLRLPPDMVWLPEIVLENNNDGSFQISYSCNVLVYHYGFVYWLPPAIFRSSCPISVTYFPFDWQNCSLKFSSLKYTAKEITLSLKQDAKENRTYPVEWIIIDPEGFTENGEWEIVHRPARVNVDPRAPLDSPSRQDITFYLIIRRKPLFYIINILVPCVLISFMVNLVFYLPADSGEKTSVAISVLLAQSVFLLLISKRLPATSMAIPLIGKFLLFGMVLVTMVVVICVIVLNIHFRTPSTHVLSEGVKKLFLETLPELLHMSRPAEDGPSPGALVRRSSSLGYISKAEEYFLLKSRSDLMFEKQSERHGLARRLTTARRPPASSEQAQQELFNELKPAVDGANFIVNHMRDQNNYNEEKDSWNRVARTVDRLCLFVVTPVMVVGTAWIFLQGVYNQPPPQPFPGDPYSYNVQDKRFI
Nicotinic Acetylcholine α1, Bungarotoxin, sequence (P07510 23-517): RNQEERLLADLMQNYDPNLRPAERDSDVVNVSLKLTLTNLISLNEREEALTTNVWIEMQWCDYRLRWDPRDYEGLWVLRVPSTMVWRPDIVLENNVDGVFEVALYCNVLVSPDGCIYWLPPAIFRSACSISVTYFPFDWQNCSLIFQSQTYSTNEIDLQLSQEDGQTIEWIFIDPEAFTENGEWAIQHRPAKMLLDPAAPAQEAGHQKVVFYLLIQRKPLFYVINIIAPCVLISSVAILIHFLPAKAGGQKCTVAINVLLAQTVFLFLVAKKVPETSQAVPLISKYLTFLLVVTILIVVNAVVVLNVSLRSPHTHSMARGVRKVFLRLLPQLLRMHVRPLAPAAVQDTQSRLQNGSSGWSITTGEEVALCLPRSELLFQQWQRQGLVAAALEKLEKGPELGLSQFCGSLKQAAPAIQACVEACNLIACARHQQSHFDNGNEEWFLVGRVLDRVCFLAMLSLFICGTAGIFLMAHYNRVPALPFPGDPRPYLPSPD
Nicotinic Acetylcholine α1, Bungarotoxin, sequence (P11230 24-501, further chain): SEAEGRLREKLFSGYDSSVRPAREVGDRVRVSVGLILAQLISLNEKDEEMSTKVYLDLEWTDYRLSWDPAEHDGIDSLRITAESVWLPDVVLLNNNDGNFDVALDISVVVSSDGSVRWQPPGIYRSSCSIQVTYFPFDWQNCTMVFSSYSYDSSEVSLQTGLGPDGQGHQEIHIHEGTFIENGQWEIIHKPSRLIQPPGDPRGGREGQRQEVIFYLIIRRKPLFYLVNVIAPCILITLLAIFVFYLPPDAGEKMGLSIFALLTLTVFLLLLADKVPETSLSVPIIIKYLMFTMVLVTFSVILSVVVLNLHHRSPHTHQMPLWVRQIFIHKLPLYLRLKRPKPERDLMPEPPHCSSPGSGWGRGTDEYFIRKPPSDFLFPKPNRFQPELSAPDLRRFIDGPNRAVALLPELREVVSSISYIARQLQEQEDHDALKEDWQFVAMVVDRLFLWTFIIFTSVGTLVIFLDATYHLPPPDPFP

Opiate δ1 (OP1, DOP) = Opiate δ1 (OP1, DOP) (Homo sapiens, UniProt P41143); assay: Lead Profiling Screen – Eurofins Panlabs; type: binding; conditions: read-out: % inh at 10 μM
[10] = predicted hepatic clearance from microsomal CLint

Muscarinic M1, sequence (P11229 whole entry): as the sequence (P11229 whole entry) above

`Cc1nc(C)c2c(n1)sc1c(NCc3ccc(C(C)(C)O)cc3)nccc12` [22g] gave an inhibition at 10 µM [1] of 25%, an inhibition at 10 µM (Muscarinic M1) of 0% and an inhibition at 10 µM (Endothelin ETA) of -2%. The IC50 (CYP 2D6) was over 30 µM, the inhibition at 10 µM [2] was 6% and the “% inh at 10 μM” value (Androgen (Testosterone)) was 5%. For the same molecule, the inhibition at 10 µM (Histamine H1) was -11%, the inhibition at 10 µM (Adrenergic α1D) was 5% and the inhibition at 10 µM [3] was 7%. The “human M1 %Ach Max” value (human M1) was “inactive”, the “human M1 EC50” value (human M1) was “inactive” and the inhibition at 10 µM [4] was -3%. For the same molecule, the CLint scaled at 1 µM ([5]; pH 7.4, human liver microsomes) was 26 mL/min/kg, the “CLhep, human” value [5, 10] was 12 mL/min/kg and the “% inh at 10 μM” value [6] was 13%. For the same molecule, the “% inh at 10 μM” value (Rolipram) was 5%, the inhibition at 10 µM (Endothelin ETB) was 6% and the inhibition at 10 µM (Neuropeptide Y Y1) was -1%. For the same molecule, the CLint scaled at 1 µM ([7]; pH 7.4, rat liver microsomes) was 78 mL/min/kg, the “CLhep, rat” value [7, 10] was 37 mL/min/kg and the inhibition at 10 µM (Bradykinin B1) was -1%. For the same molecule, the inhibition at 10 µM (hERG potassium channel) was 16%, the “% inh at 10 μM” value [8] was -1% and the “% inh at 10 μM” value (Purinergic P2Y) was 9%. For the same molecule, the inhibition at 10 µM [9] was -8% and the inhibition at 10 µM (Opiate δ1 (OP1, DOP)) was -2%.

Source: paper PMC11487561 (ACS Chemical Neuroscience, 2024)
